Tested on: 192522-019-R-J2-PDC complex tumor spheroid viability
Test: Anticancer human tumor 192522-019-R-J2-PDC patient-derived colon adenocarcinoma cell line growth inhibition [POLQ]
Conditions: for IC50: curve of first compound; for viability, T/C: stronger effect = lower value
How it was run: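 Growth inhibition in 3D: complex spheroids (tumor PDC, HUVEC, MSC) treated with POLQ inhibitor combinations; where Cmax unknown, highest tested concentration 10 microM, except SN-38 at 1 microM.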

[1] = second compound 0.0316 µM, first compound 0.0316 µM
[2] = second compound 0.0316 µM, first compound 0.1 µM
[3] = second compound 0.0316 µM, first compound 0.316 µM
[4] = second compound 0.0316 µM, first compound 1 µM
[5] = second compound 0.0316 µM, first compound 3.16 µM
[6] = second compound 0.0316 µM, first compound 10 µM
[7] = second compound 0.1 µM, first compound 0.0316 µM
[8] = second compound 0.1 µM, first compound 0.1 µM
[9] = second compound 0.1 µM, first compound 0.316 µM
[10] = second compound 0.1 µM, first compound 1 µM
[11] = second compound 0.1 µM, first compound 3.16 µM
[12] = second compound 0.1 µM, first compound 10 µM
[13] = second compound 0.316 µM, first compound 0.0316 µM
[14] = second compound 0.316 µM, first compound 0.1 µM
[15] = second compound 0.316 µM, first compound 0.316 µM
[16] = second compound 0.316 µM, first compound 1 µM
[17] = second compound 0.316 µM, first compound 3.16 µM
[18] = second compound 0.316 µM, first compound 10 µM
[19] = second compound 1 µM, first compound 0.0316 µM
[20] = second compound 1 µM, first compound 0.1 µM
[21] = second compound 1 µM, first compound 0.316 µM
[22] = second compound 1 µM, first compound 1 µM
[23] = second compound 1 µM, first compound 3.16 µM
[24] = second compound 1 µM, first compound 10 µM
[25] = second compound 3.16 µM, first compound 0.0316 µM
[26] = second compound 3.16 µM, first compound 0.1 µM
[27] = second compound 3.16 µM, first compound 0.316 µM
[28] = second compound 3.16 µM, first compound 1 µM
[29] = second compound 3.16 µM, first compound 3.16 µM
[30] = second compound 3.16 µM, first compound 10 µM
[31] = second compound 10 µM, first compound 0.0316 µM
[32] = second compound 10 µM, first compound 0.1 µM
[33] = second compound 10 µM, first compound 0.316 µM
[34] = second compound 10 µM, first compound 1 µM
[35] = second compound 10 µM, first compound 3.16 µM
[36] = second compound 10 µM, first compound 10 µM
[37] = second compound 0.0316 µM, first compound 0.00316 µM
[38] = second compound 0.0316 µM, first compound 0.01 µM
[39] = second compound 0.1 µM, first compound 0.00316 µM
[40] = second compound 0.1 µM, first compound 0.01 µM
[41] = second compound 0.316 µM, first compound 0.00316 µM
[42] = second compound 0.316 µM, first compound 0.01 µM
[43] = second compound 1 µM, first compound 0.00316 µM
[44] = second compound 1 µM, first compound 0.01 µM
[45] = second compound 3.16 µM, first compound 0.00316 µM
[46] = second compound 3.16 µM, first compound 0.01 µM
[47] = second compound 10 µM, first compound 0.00316 µM
[48] = second compound 10 µM, first compound 0.01 µM
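Note: spheroids exposed to drugs for seven days before reading.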
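Throughout, for viability, T/C: 100% = DMSO vehicle control viability in luminescence.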

In the case of `COc1cc2cc(C(=O)CCC(=O)O)sc2cc1OC` + COC1C(OC(N)=O)C(O)C(Oc2ccc3c(O)c(NC(=O)c4ccc(O)c(CC=C(C)C)c4)c(=O)oc3c2C)OC1(C)C, the IC50 (second compound 0.0316 µM) is reported as over 10000 nM, the IC50 (second compound 0.1 µM) is reported as over 10000 nM and the IC50 (second compound 0.316 µM) is reported as over 10000 nM. For the same compound, the IC50 (second compound 1 µM) was over 10000 nM, the IC50 (second compound 3.16 µM) was over 10000 nM and the IC50 (second compound 10 µM) was over 10000 nM. For the same compound, the viability, T/C [1] was 101%, the viability, T/C [2] was 94.3% and the viability, T/C [3] was 97.7%. For the same compound, the viability, T/C [4] was 101%, the viability, T/C [5] was 102% and the viability, T/C [6] was 91.9%. The viability, T/C [7] was 110%, the viability, T/C [8] was 98% and the viability, T/C [9] was 96.9%. For the same compound, the viability, T/C [10] was 97%, the viability, T/C [11] was 94.9% and the viability, T/C [12] was 106%. For the same compound, the viability, T/C [13] was 105%, the viability, T/C [14] was 88.7% and the viability, T/C [15] was 98.6%. The viability, T/C [16] was 105%, the viability, T/C [17] was 96.9% and the viability, T/C [18] was 105%. It also gave a viability, T/C [19] of 105%, a viability, T/C [20] of 97.7% and a viability, T/C [21] of 104%. For the same compound, the viability, T/C [22] was 111%, the viability, T/C [23] was 105% and the viability, T/C [24] was 101%. It also gave a viability, T/C [25] of 103%, a viability, T/C [26] of 103% and a viability, T/C [27] of 107%. The viability, T/C [28] was 105%, the viability, T/C [29] was 114% and the viability, T/C [30] was 96.9%. It also gave a viability, T/C [31] of 102%, a viability, T/C [32] of 88.7% and a viability, T/C [33] of 109%. For the same compound, the viability, T/C [34] was 109%, the viability, T/C [35] was 112% and the viability, T/C [36] was 101%.

`CCc1c2c(nc3ccc(O)cc13)-c1cc3c(c(=O)n1C2)COC(=O)[C@]3(O)CC` + COC1C(OC(N)=O)C(O)C(Oc2ccc3c(O)c(NC(=O)c4ccc(O)c(CC=C(C)C)c4)c(=O)oc3c2C)OC1(C)C gave an IC50 (second compound 0.0316 µM) of 25.4 nM, an IC50 (second compound 0.1 µM) of 51.5 nM and an IC50 (second compound 0.316 µM) of 41.9 nM. It also gave an IC50 (second compound 1 µM) of 33.9 nM, an IC50 (second compound 3.16 µM) of 42.2 nM and an IC50 (second compound 10 µM) of 43.4 nM. The viability, T/C [37] was 96.3%, the viability, T/C [38] was 52.5% and the viability, T/C [1] was 52.3%. The viability, T/C [2] was 47%, the viability, T/C [3] was 35.1% and the viability, T/C [4] was 23.8%. It also gave a viability, T/C [39] of 84%, a viability, T/C [40] of 59% and a viability, T/C [7] of 55.8%. It also gave a viability, T/C [8] of 49.7%, a viability, T/C [9] of 31.7% and a viability, T/C [10] of 27.5%. It also gave a viability, T/C [41] of 83.7%, a viability, T/C [42] of 56% and a viability, T/C [13] of 53.7%. For the same compound, the viability, T/C [14] was 47.5%, the viability, T/C [15] was 31.4% and the viability, T/C [16] was 25.8%. It also gave a viability, T/C [43] of 82%, a viability, T/C [44] of 52.3% and a viability, T/C [19] of 57.9%. For the same compound, the viability, T/C [20] was 43.3%, the viability, T/C [21] was 30.1% and the viability, T/C [22] was 27.9%. It also gave a viability, T/C [45] of 86.7%, a viability, T/C [46] of 57.3% and a viability, T/C [25] of 57.9%. It also gave a viability, T/C [26] of 40.3%, a viability, T/C [27] of 35.9% and a viability, T/C [28] of 23.8%. For the same compound, the viability, T/C [47] was 83.3%, the viability, T/C [48] was 54.6% and the viability, T/C [31] was 59.4%. For the same compound, the viability, T/C [32] was 41.9%, the viability, T/C [33] was 35.5% and the viability, T/C [34] was 27.8%.

For `COc1ccc([C@@H](O)c2cc(-c3ncnc4cc(N5CCOCC5)ccc34)c(F)cc2Cl)nn1` + COC1C(OC(N)=O)C(O)C(Oc2ccc3c(O)c(NC(=O)c4ccc(O)c(CC=C(C)C)c4)c(=O)oc3c2C)OC1(C)C, the IC50 (second compound 0.0316 µM) was over 10000 nM, the IC50 (second compound 0.1 µM) was over 10000 nM and the IC50 (second compound 0.316 µM) was over 10000 nM. For the same compound, the IC50 (second compound 1 µM) was over 10000 nM, the IC50 (second compound 3.16 µM) was over 10000 nM and the IC50 (second compound 10 µM) was over 10000 nM. The viability, T/C [1] was 105%, the viability, T/C [2] was 87.2% and the viability, T/C [3] was 120%. It also gave a viability, T/C [4] of 97.7%, a viability, T/C [5] of 99.8% and a viability, T/C [6] of 63.1%. For the same compound, the viability, T/C [7] was 109%, the viability, T/C [8] was 97.6% and the viability, T/C [9] was 106%. The viability, T/C [10] was 95.5%, the viability, T/C [11] was 88.1% and the viability, T/C [12] was 62.4%. For the same compound, the viability, T/C [13] was 117%, the viability, T/C [14] was 93.2% and the viability, T/C [15] was 103%. It also gave a viability, T/C [16] of 107%, a viability, T/C [17] of 97.8% and a viability, T/C [18] of 68.5%. It also gave a viability, T/C [19] of 109%, a viability, T/C [20] of 106% and a viability, T/C [21] of 104%. The viability, T/C [22] was 92.9%, the viability, T/C [23] was 86.8% and the viability, T/C [24] was 63.1%. For the same compound, the viability, T/C [25] was 96%, the viability, T/C [26] was 99.2% and the viability, T/C [27] was 117%. The viability, T/C [28] was 84.9%, the viability, T/C [29] was 98.1% and the viability, T/C [30] was 72.9%. For the same compound, the viability, T/C [31] was 103%, the viability, T/C [32] was 104% and the viability, T/C [33] was 114%. The viability, T/C [34] was 108%, the viability, T/C [35] was 99.2% and the viability, T/C [36] was 66.9%.

In the case of `C=CCn1c(=O)c2cnc(Nc3ccc(N4CCN(C)CC4)cc3)nc2n1-c1cccc(C(C)(C)O)n1` + Nc1ccc(C#CCN(C(=O)Cc2ncc(C(F)(F)F)cc2C(F)(F)F)c2ccc(F)cc2)nn1, the IC50 (second compound 0.0316 µM) is reported as 732 nM, the IC50 (second compound 0.1 µM) is reported as 757 nM and the IC50 (second compound 0.316 µM) is reported as 799 nM. The IC50 (second compound 1 µM) was 778 nM, the IC50 (second compound 3.16 µM) was 901 nM and the IC50 (second compound 10 µM) was 833 nM. It also gave a viability, T/C [37] of 104%, a viability, T/C [38] of 103% and a viability, T/C [1] of 93%. The viability, T/C [2] was 91.8%, the viability, T/C [3] was 92.4% and the viability, T/C [4] was 34.1%. The viability, T/C [39] was 107%, the viability, T/C [40] was 103% and the viability, T/C [7] was 97.5%. For the same compound, the viability, T/C [8] was 96.6%, the viability, T/C [9] was 93.2% and the viability, T/C [10] was 35.9%. The viability, T/C [41] was 105%, the viability, T/C [42] was 97.4% and the viability, T/C [13] was 92.3%. It also gave a viability, T/C [14] of 99.8%, a viability, T/C [15] of 93% and a viability, T/C [16] of 39.5%. The viability, T/C [43] was 103%, the viability, T/C [44] was 108% and the viability, T/C [19] was 102%. For the same compound, the viability, T/C [20] was 95.2%, the viability, T/C [21] was 89.7% and the viability, T/C [22] was 39%. For the same compound, the viability, T/C [45] was 108%, the viability, T/C [46] was 101% and the viability, T/C [25] was 104%. It also gave a viability, T/C [26] of 94.8%, a viability, T/C [27] of 97.8% and a viability, T/C [28] of 45.3%. It also gave a viability, T/C [47] of 112%, a viability, T/C [48] of 113% and a viability, T/C [31] of 110%. The viability, T/C [32] was 106%, the viability, T/C [33] was 98.5% and the viability, T/C [34] was 40.2%.

From PubChem BioAssay AID1963850 (Molecular Pharmacology Branch, DTP, NCI, 2024)
